Experimental data taken from patent publication US8884007B2, “Hexenone compounds and medical use thereof” (Institute of Pharmacology and Toxicology Medical Sciences …, priority 2010, dated 2014).

Tests used:
[1] = system: TG-induced cardiomyocytes apoptosis; assay: Protection against TG-induced cardiomyocytes apoptosis (MTT); type: cell-based, Wistar sucking mice
Description: The isolation and culture of cardiomyocytes were performed by referring to the differential adhesion method (Kreider, A. Messing, H. Doan, S. U. Kim, R. P. Lisak and D. E. Pleasure, Enrichment of Schwann cell cultures from neonatal rat sciatic nerve by differential adhesion, Brain Res 2 (1981), pp. 433-444). Wistar sucking mice newborn within 24 h were used, sterilized at skin of ventrum with iodine tincture and ethanol, subjected to thoracotomy using scissors at subxiphoid median line with a deviation to left, heart was taken out after slant thoracotomy and placed in PBS precooled with ice; the heart was softly blown and beaten with 0.01M PBS to remove blood cells and other tissues, then cut into pieces with 0.5 mm^3 size, washed with 0.01M PBS repeatedly for 2-3 times; the pieces were placed in conical flask, added with 4 ml of 0.125% pancretin, 1 ml of 0.1% collagenase II (final concentrations separately being 0.1% and 0.02%), shaken in 37° C. water bath for 10 min, the supernatant was discarded; then 4 ml of 0.125% pancretin and 1 ml of 0.1% collagenase II again, shaken in 37° C. water bath for digestion for 10 min, the supernatant was sucked and transferred to a centrifuge tube, and the supernatant was added with DMEM containing 10% FBS to terminate digestion; the step of shaking and digestion in water bath was repeated for 3-4 times, until the tissue pieces were completely digested; the collected cell suspension was centrifuged under 1000 rpm for 10 min, the supernatant was removed, then a culture medium was added for resuspension; the resuspended cells were inoculated in a cell culture flask, placed in CO2 incubator at 37° C. for incubation for 1.5 h, then the culture medium was sucked out, countered under microscope, then DMEM culture medium containing 10% FBS was used to adjust cell density, inoculated in an amount of 1×10^4 to a 96-well plate, placed in 5% CO2 incubator at 37° C. for 24 h, then half medium was replaced, a culture medium containing 0.1% Brdu was supplementally added; then the medium was replaced once per 48 h, and primary cardiomyocytes were obtained after 4 days of cultivation.
The isolated primary culture of cardiomyocytes was inoculated in an amount of 10^4 cells per well to a 96-well plate, and the volume of each well was 100 ul (marginal wells were filled with sterile PBS). […] The optical density (OD) value of each well was measured at wavelength of 550 nm by enzyme-linked immunoassay instrument, and each well was repeatedly measured for 5 times and the results were recorded. […]

primary cardiomyocytes = assay: Measurement of cell inhibition rate (MTT) on normal primary cardiomyocytes; type: cell-based, Wistar sucking mice
Description: The isolation and culture of cardiomyocytes were performed by referring to the differential adhesion method (Kreider, A. Messing, H. Doan, S. U. Kim, R. P. Lisak and D. E. Pleasure, Enrichment of Schwann cell cultures from neonatal rat sciatic nerve by differential adhesion, Brain Res 2 (1981), pp. 433-444). […]
The isolated primary culture of cardiomyocytes was inoculated in an amount of 10^4 cells per well to a 96-well plate, and the volume of each well was 100 ul (marginal wells were filled with sterile PBS). […] The optical density (OD) value of each well was measured at wavelength of 550 nm by enzyme-linked immunoassay instrument, and each well was repeatedly measured for 5 times and the results were recorded.

Structure (SMILES) | Survival rate of cardiomyocytes (%) ([1]; TG intervening group (0.4 uM), TG alone) | Survival rate of cardiomyocytes (%) ([1]; TG (0.4 uM) + compound 0.3 μM group, pretreatment 30 min before inducing apoptosis) | Survival rate of cardiomyocytes (%) ([1]; TG (0.4 uM) + compound 1 μM group, pretreatment 30 min before inducing apoptosis) | Survival rate of cardiomyocytes (%) ([1]; TG (0.4 uM) + compound 10 μM group, pretreatment 30 min before inducing apoptosis) | inhibition at 100 µM (primary cardiomyocytes; Cardiomyocyte, 100 μM group, MTT, 48 h, normal primary cardiomyocytes, read-out: Inhibitive rate of cardiomyocytes (%)) | inhibition at 300 µM (primary cardiomyocytes; Cardiomyocyte, 300 μM group, MTT, 48 h, normal primary cardiomyocytes, read-out: Inhibitive rate of cardiomyocytes (%)) | effect on survival rate of normal cardiomyocyte (primary cardiomyocytes; concentration within 300 μM)
C/C=C(/C)C(=O)O[C@H]1C(C)=C2[C@H]([C@@H]1OC(=O)CCCCCCC)[C@@](C)(OC(C)=O)C[C@H](OC(=O)CCC)[C@@]1(O)[C@H]2OC(=O)[C@@]1(C)O [TG, thapsigargin, reference compound] | 59 ± 1.1% |  |  |  |  |  | 
O=C(/C=C/c1ccccc1)CC(NC(=S)N1CCOCC1)C(Cl)(Cl)Cl (stereo not shown) [Example 1, (1E)-1-phenyl-5-(1-morpholinylthiocarboxamido)-6,6,6-trichloro-1-ene-3-hexanone] |  | 76.3 ± 7.6% | 83.3 ± 7.1% | 92.2 ± 5.6% | 2.91 ± 1.88% | 0.76 ± 0.42% | no effect
